The values below come from patent US20250325552A1, “SUBSTITUTED THIADIAZOLYL DERIVATIVES AS DNA POLYMERASE THETA INHIBITORS” (IDEAYA Biosciences, Inc., priority 2020, published 2025).

This test deals with Polθ theta (1-899) (hPolQ) (Homo sapiens (Human), UniProt O75417). The test is described as follows: Biological Assay 1: Polθ ATPase activity, NADH oxidation-coupled enzymatic assay (10 nM enzyme, 30 min). As to conditions: Polθ (1-899) 10 nM, 100 μM ATP, 300 nM dT50 ssDNA; Examples 1 to 268; read-out: ATPase NADH coupling:Standard Screening:hPolQ IC50. The format is biochemical. The method, boiled down:
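ATP turnover was coupled to NADH oxidation and followed at 340 nm every minute for 30 min. Enzyme (residues 1-899, 10 nM) sat with compound for 15 min at room temperature before an equal-volume addition of 100 μM ATP plus 300 nM dT50 ssDNA. Progress-curve slopes from 10-point dilutions were fitted by a four-parameter model.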

Chain of Polθ theta (1-899) (hPolQ) (O75417 1-899): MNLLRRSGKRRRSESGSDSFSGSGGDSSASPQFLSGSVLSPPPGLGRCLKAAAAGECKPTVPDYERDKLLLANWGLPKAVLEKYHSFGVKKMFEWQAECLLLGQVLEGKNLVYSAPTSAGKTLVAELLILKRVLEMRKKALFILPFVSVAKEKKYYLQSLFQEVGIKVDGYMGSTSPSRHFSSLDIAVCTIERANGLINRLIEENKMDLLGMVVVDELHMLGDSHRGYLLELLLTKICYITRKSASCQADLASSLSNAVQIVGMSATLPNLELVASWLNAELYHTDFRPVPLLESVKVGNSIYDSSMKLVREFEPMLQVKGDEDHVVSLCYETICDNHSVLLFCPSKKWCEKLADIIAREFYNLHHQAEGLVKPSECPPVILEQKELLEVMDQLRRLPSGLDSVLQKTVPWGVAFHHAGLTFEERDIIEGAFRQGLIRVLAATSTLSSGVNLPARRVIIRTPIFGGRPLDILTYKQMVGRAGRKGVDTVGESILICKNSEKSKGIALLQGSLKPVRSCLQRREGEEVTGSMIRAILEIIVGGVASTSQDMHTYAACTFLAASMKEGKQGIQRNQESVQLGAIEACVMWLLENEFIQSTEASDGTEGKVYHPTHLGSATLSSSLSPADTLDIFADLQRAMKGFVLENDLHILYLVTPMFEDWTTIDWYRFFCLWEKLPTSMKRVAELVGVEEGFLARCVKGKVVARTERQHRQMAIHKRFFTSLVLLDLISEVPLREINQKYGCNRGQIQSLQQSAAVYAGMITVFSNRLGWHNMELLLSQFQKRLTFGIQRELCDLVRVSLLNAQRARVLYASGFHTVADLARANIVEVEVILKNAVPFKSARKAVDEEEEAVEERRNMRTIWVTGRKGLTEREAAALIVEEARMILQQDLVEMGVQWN

Regarding `COc1cccnc1-c1cc(C)ncc1C(=O)Nc1nnc(OCc2ccc(Cl)cn2)s1` [Example 120, N-(5-((5-chloropyridin-2-yl)methoxy)-1,3,4-thiadiazol-2-yl)-3-methoxy-6′-methyl-(2,4′-bipyridine)-3′-carboxamide], the IC50 lay in the range of 200 to 500 nM. For the molecule `COc1cnc(Cl)c(F)c1-c1cc(C)ncc1C(=O)Nc1nnc(OC[C@H]2CC[C@H](O)CC2)s1` [Example 248, 2′-chloro-3′-fluoro-N-(5-(((1r,4r)-4-hydroxycyclohexyl)methoxy)-1,3,4-thiadiazol-2-yl)-5′-methoxy-6-methyl-(4,4′-bipyridine)-3-carboxamide], the IC50 is no more than 200 nM. With `COc1cccc(F)c1-c1cc(C)ncc1C(=O)Nc1nnc(OCc2ccc3c(n2)OCCO3)s1` [Example 35, N-(5-(2H,3H-(1,4)dioxino(2,3-b)pyridin-6-ylmethoxy)-1,3,4-thiadiazol-2-yl)-4-(2-fluoro-6-methoxyphenyl)-6-methylpyridine-3-carboxamide] the figure was no more than 200 nM; with `Cc1cc(-c2cc(Cl)ncc2OC(F)F)c(C(=O)Nc2nnc(OCC3CCOC3)s2)cn1` (racemic) [Example 259, 2′-chloro-5′-(difluoromethoxy)-6-methyl-N-(5-((tetrahydrofuran-3-yl)methoxy)-1,3,4-thiadiazol-2-yl)-(4,4′-bipyridine)-3-carboxamide], no more than 200 nM; with `COc1cccc(F)c1-c1cc(C)ncc1C(=O)Nc1nnc(OCc2ccc([S@@](C)(=N)=O)cc2)s1` [Example 115, 4-(2-fluoro-6-methoxyphenyl)-6-methyl-N-(5-((4-((S)—S-methylsulfonimidoyl)benzyl)oxy)-1,3,4-thiadiazol-2-yl)nicotinamide], no more than 200 nM. `COc1ccc(Cl)cc1-c1cc(C)ncc1C(=O)Nc1nnc(OCc2ccc([S@@](C)(=N)=O)cn2)s1` [Example 148, (S)-4-(5-chloro-2-methoxyphenyl)-6-methyl-N-(5-((5-(S-methylsulfonimidoyl)pyridin-2-yl)methoxy)-1,3,4-thiadiazol-2-yl)nicotinamide]: the IC50 was no more than 200 nM. With `COc1cnc(C)c(F)c1-c1cc(C)ncc1C(=O)Nc1nnc(OC[C@H]2COCCO2)s1` [Example 242, N-(5-(((R)-1,4-dioxan-2-yl)methoxy)-1,3,4-thiadiazol-2-yl)-3′-fluoro-5′-methoxy-2′,6-dimethyl-(4,4′-bipyridine)-3-carboxamide], the IC50 is no more than 200 nM. With `COc1cccc(F)c1-c1cc(C)ncc1C(=O)Nc1nnc(OCc2ccc(C3(C)COC3)cn2)s1` [Example 140, 4-(2-fluoro-6-methoxyphenyl)-6-methyl-N-(5-((5-(3-methyloxetan-3-yl)pyridin-2-yl)methoxy)-1,3,4-thiadiazol-2-yl)nicotinamide] the figure was no more than 200 nM; with `COc1cnc(Cl)cc1-c1cc(C)ncc1C(=O)Nc1nnc(OCc2ccc(C(C)(C)C#N)cn2)s1` [Example 84, 2′-chloro-N-(5-((5-(2-cyanopropan-2-yl)pyridin-2-yl)methoxy)-1,3,4-thiadiazol-2-yl)-5′-methoxy-6-methyl-(4,4′-bipyridine)-3-carboxamide], no more than 200 nM. With `COc1cnc(C)c(F)c1-c1cc(C)ncc1C(=O)Nc1nnc(OCC23CCC(O)(CC2)CC3)s1` [Example 219, 3′-fluoro-N-(5-((4-hydroxybicyclo(2.2.2)octan-1-yl)methoxy)-1,3,4-thiadiazol-2-yl)-5′-methoxy-2′,6-dimethyl-(4,4′-bipyridine)-3-carboxamide] the figure was no more than 200 nM; with `Cc1cc(-c2cc(CO)ccc2F)c(C(=O)Nc2nnc(OCc3ccc(Cl)cn3)s2)cn1` [Example 23, N-(5-((5-chloropyridin-2-yl)methoxy)-1,3,4-thiadiazol-2-yl)-4-(2-fluoro-5-(hydroxymethyl)phenyl)-6-methylnicotinamide], no more than 200 nM. Then `COc1cccc(F)c1-c1cc(C)ncc1C(=O)Nc1nnc(OCc2ccc(CCO)cn2)s1` [Example 55, 4-(2-fluoro-6-methoxyphenyl)-N-(5-((5-(2-hydroxyethyl)pyridin-2-yl)methoxy)-1,3,4-thiadiazol-2-yl)-6-methylnicotinamide], with no more than 200 nM.

Consider `COc1cccc(F)c1-c1cc(C)ncc1C(=O)Nc1nnc(OCc2ccc(S(C)(=O)=O)cn2)s1` [Example 24, 4-(2-fluoro-6-methoxyphenyl)-6-methyl-N-(5-((5-(methylsulfonyl)pyridin-2-yl)methoxy)-1,3,4-thiadiazol-2-yl)nicotinamide], for which the IC50 is no more than 200 nM. In the case of `COc1cnc(Cl)cc1-c1cc(C)ncc1C(=O)Nc1nnc(OC[C@H]2C[C@H](O)C2)s1` [Example 108, 2′-chloro-N-(5-(((1r,3r)-3-hydroxycyclobutyl)methoxy)-1,3,4-thiadiazol-2-yl)-5′-methoxy-6-methyl-[4,4′-bipyridine]-3-carboxamide], the IC50 was no more than 200 nM. With `COc1cccc(F)c1-c1cc(C)ncc1C(=O)Nc1nnc(OCc2ccc3c(n2)CCC[C@H]3O)s1` [Example 117, 4-(2-fluoro-6-methoxyphenyl)-N-(5-(((R)-5-hydroxy-5,6,7,8-tetrahydroquinolin-2-yl)methoxy)-1,3,4-thiadiazol-2-yl)-6-methylnicotinamide] the figure was no more than 200 nM; with `COc1cnc(Cl)cc1-c1cc(C)ncc1C(=O)Nc1nnc(OC[C@H]2CC[C@@](C)(O)CC2)s1` [Example 215, 2′-chloro-N-(5-(((1s,4s)-4-hydroxy-4-methylcyclohexyl)methoxy)-1,3,4-thiadiazol-2-yl)-5′-methoxy-6-methyl-(4,4′-bipyridine)-3-carboxamide], no more than 200 nM; with `COc1cccc(F)c1-c1cc(C)ncc1C(=O)Nc1nnc(OCC23CC(C(C)(C)O)(C2)C3)s1` [Example 103, 4-(2-fluoro-6-methoxyphenyl)-N-(5-((3-(2-hydroxypropan-2-yl)bicyclo(1.1.1)pentan-1-yl)methoxy)-1,3,4-thiadiazol-2-yl)-6-methylpyridine-3-carboxamide], no more than 200 nM. With `COc1cnc(Cl)cc1-c1cc(C)ncc1C(=O)Nc1nnc(OCC2CCC(F)(F)CC2)s1` [Example 153, 2′-chloro-N-(5-((4,4-difluorocyclohexyl)methoxy)-1,3,4-thiadiazol-2-yl)-5′-methoxy-6-methyl-(4,4′-bipyridine)-3-carboxamide] the figure was no more than 200 nM; with `COc1ccc(F)cc1-c1cc(C)ncc1C(=O)Nc1nnc(OCc2ccc(C(C)(C)O)cn2)s1` [Example 63, 4-(5-fluoro-2-methoxyphenyl)-N-(5-((5-(2-hydroxypropan-2-yl)pyridin-2-yl)methoxy)-1,3,4-thiadiazol-2-yl)-6-methylnicotinamide], no more than 200 nM. Take `COc1cnc(Cl)cc1-c1cc(C)ncc1C(=O)Nc1nnc(OC[C@]23COC[C@H]2C3)s1` (single isomer, unassigned) [Example 231]: the IC50 was no more than 200 nM. As to `COc1cccc(F)c1-c1cc(C)ncc1C(=O)Nc1nnc(OCc2ccc3c(n2)CCOC3)s1` [Example 102, 4-(2-fluoro-6-methoxyphenyl)-6-methyl-N-(5-(5H,7H,8H-pyrano(4,3-b)pyridin-2-ylmethoxy)-1,3,4-thiadiazol-2-yl)pyridine-3-carboxamide], the IC50 is no more than 200 nM.

Consider `COC(C)(C)c1ccc(COc2nnc(NC(=O)c3cnc(C)cc3-c3c(F)cccc3OC(F)F)s2)nc1` [Example 124, 4-(2-(difluoromethoxy)-6-fluorophenyl)-N-(5-((5-(2-methoxypropan-2-yl)pyridin-2-yl)methoxy)-1,3,4-thiadiazol-2-yl)-6-methylpyridine-3-carboxamide], for which the IC50 was no more than 200 nM.

As to `COc1cccc(F)c1-c1cc(C)ncc1C(=O)Nc1nnc(OCc2ccc(CC3COC3)cn2)s1` [Example 54, 4-(2-fluoro-6-methoxyphenyl)-6-methyl-N-(5-((5-(oxetan-3-ylmethyl)pyridin-2-yl)methoxy)-1,3,4-thiadiazol-2-yl)nicotinamide], the IC50 is no more than 200 nM. With `COc1cccc(F)c1-c1cc(C)ncc1C(=O)Nc1nnc(OC[C@H]2CC[C@@H](O)CC2)s1` [Example 101, 4-(2-fluoro-6-methoxyphenyl)-N-(5-(((1s,4s)-4-hydroxycyclohexyl)methoxy)-1,3,4-thiadiazol-2-yl)-6-methylnicotinamide] the figure was no more than 200 nM. Then `COc1cnc(Cl)cc1-c1cc(C)ncc1C(=O)Nc1nnc(OC[C@H]2COCCO2)s1` [Example 187, (R)—N-(5-((1,4-dioxan-2-yl)methoxy)-1,3,4-thiadiazol-2-yl)-2′-chloro-5′-methoxy-6-methyl-(4,4′-bipyridine)-3-carboxamide], with no more than 200 nM; and `COCc1ccc(COc2nnc(NC(=O)c3cnc(C)cc3-c3c(F)cccc3OC)s2)nc1` [Example 34, 4-(2-fluoro-6-methoxyphenyl)-N-(5-((5-(methoxymethyl)pyridin-2-yl)methoxy)-1,3,4-thiadiazol-2-yl)-6-methylnicotinamide], with no more than 200 nM. With `COc1cccc(F)c1-c1cc(C)ncc1C(=O)Nc1nnc(OCc2ccc([C@@H](C)OC)cn2)s1` [Example 94, 4-(2-fluoro-6-methoxyphenyl)-N-(5-((5-((R)-1-methoxyethyl)pyridin-2-yl)methoxy)-1,3,4-thiadiazol-2-yl)-6-methylnicotinamide] the figure was no more than 200 nM; with `COc1cnc(Cl)cc1-c1cc(C)ncc1C(=O)Nc1nnc(OC[C@@H]2COCCO2)s1` [Example 186, (S)—N-(5-((1,4-dioxan-2-yl)methoxy)-1,3,4-thiadiazol-2-yl)-2′-chloro-5′-methoxy-6-methyl-(4,4′-bipyridine)-3-carboxamide], no more than 200 nM; with `COc1cnc(Cl)cc1-c1cc(C)ncc1C(=O)Nc1nnc(OCC2CCC2(F)F)s1` (centres unmarked) [Example 204, 2′-chloro-N-(5-((2,2-difluorocyclobutyl)methoxy)-1,3,4-thiadiazol-2-yl)-5′-methoxy-6-methyl-(4,4′-bipyridine)-3-carboxamide], no more than 200 nM.
